Assay results reported in patent US11479528B2, “Heat shock protein 90 inhibitors” (TAIPEI MEDICAL UNIVERSITY, priority 2017, dated 2022).
Like-named read-outs stand apart in the source and are kept apart here.

Assays:
lung A549 = assay: Sulforhodamine B (SRB) assay, lung A549; assay type: cell-based, human
Experimental: Human cancer cells were purchased from the American Type Culture Collection (Manassas, Va., USA).
Cells were seeded in 96-well plates in medium with 5% fetal bovine serum. […] Unbound sulforhodamine B was washed out by 1% acetic acid and sulforhodamine B-bound cells were solubilized with 10 mmol/L Trizma base. […] Using the following absorbance measurements, such as time zero (T0), control growth (C), and cell growth in the presence of the drug (Tx), the percentage growth was calculated at each of the compound concentrations levels. Percentage growth inhibition was calculated as […].

colorectal HCT116 = assay: Sulforhodamine B (SRB) assay, colorectal HCT116; assay type: cell-based; conditions: Homo sapiens, HCT-116, SRB
Experimental: (§1) Human cancer cells were purchased from the American Type Culture Collection (Manassas, Va., USA). These cell lines were cultured in RPMI 1640 medium or DMEM supplemented with 10% FBS (v/v) and pencillin (100 U/mL)/streptomycin (100 ug/mL)/amphotericin B (0.25 ug/mL). Cultures were maintained at 37° C. in a humidified atmosphere of 5% CO2/95% air.
(§2) Cells were seeded in 96-well plates in medium with 5% fetal bovine serum. After 24 h, cells were fixed with 10% trichloroacetic acid to represent cell population at the time of drug addition (T0). After additional incubation of DMSO or drugs for 48 h, cells were fixed with 10% trichloroacetic acid and sulforhodamine B at 0.4% (w/v) in 1% acetic acid was added to stain cells. Unbound sulforhodamine B was washed out by 1% acetic acid and sulforhodamine B-bound cells were solubilized with 10 mmol/L Trizma base. The absorbance was read at a wavelength of 515 nm. Using the following absorbance measurements, such as time zero (T0), control growth (C), and cell growth in the presence of the drug (Tx), the percentage growth was calculated at each of the compound concentrations levels. Percentage growth inhibition was calculated as […].

prostate PC3 = assay: Sulforhodamine B (SRB) assay, prostate PC3; assay type: cell-based; conditions: Homo sapiens, Table 1, 48 h
Experimental: as §1, §2

[1] = Homo sapiens, A549, Table 1, SRB, 48 h, read-out: GI50 Lung A549
[2] = Table 1, 48 h, read-out: GI50 Colorectal HCT116
[3] = Homo sapiens, A549, 48 h, read-out: GI50 Lung A549

Compound | GI50 (lung A549; [1]) [nM] | GI50 (prostate PC3) [µM] | GI50 (lung A549; [3]) [nM] | further results
CC(C)c1cc(C(=O)N(C)c2cnc3c(cnn3C)c2)c(O)cc1O [Compound 26c, 2,4-dihydroxy-5-isopropyl-N-methyl-N-(1-methyl-1H-pyrazolo[3,4-b]pyridin-5-yl)benzamide] | 700 ± 40 |  |  | GI50 (colorectal HCT116; [2]): 1.15 ± 0.22 µM
CCN(C(=O)c1cc(C(C)C)c(O)cc1O)c1cnc2c(cnn2C)c1 [Compound 26d, N-ethyl-2,4-dihydroxy-5-isopropyl-N-(1-methyl-1H-pyrazolo[3,4-b]pyridin-5-yl)benzamide] | 380 ± 20 |  |  | GI50 (colorectal HCT116; [2]): 0.71 ± 0.06 µM
CC(C)c1cc(C(=O)Nc2cnc3ccccc3c2)c(O)cc1O [Compound 28a, 2,4-dihydroxy-5-isopropyl-N-(quinolin-3-yl)benzamide] | > 10000 | > 10 |  | 
CC(C)c1cc(C(=O)N(C)c2cccc3ccn(C)c23)c(O)cc1O [Compound 22b, 2,4-dihydroxy-5-isopropyl-N-methyl-N-(1-methyl-1H-indol-7-yl)benzamide] |  |  | > 10000 | 
CCCN(C(=O)c1cc(C(C)C)c(O)cc1O)c1ccc2ccn(C)c2c1 [Compound 21e, 2,4-dihydroxy-5-isopropyl-N-(1-methyl-1H-indol-6-yl)-N-propylbenzamide] |  |  | 1620 ± 120 | 
CCCN(C(=O)c1cc(C(C)C)c(O)cc1O)c1cccc2ccn(C)c12 [Compound 22d, 2,4-dihydroxy-5-isopropyl-N-(1-methyl-1H-indol-7-yl)-N-propylbenzamide] |  |  | > 10000 | 
CC(C)c1cc(C(=O)Nc2cccc3ccn(C)c23)c(O)cc1O [Compound 22a, 2,4-dihydroxy-5-isopropyl-N-(1-methyl-1H-indol-7-yl)benzamide] |  |  | > 10000 | 
CC(C)c1cc(C(=O)Nc2ccc3ccn(C)c3c2)c(O)cc1O [Compound 21b, 2,4-dihydroxy-5-isopropyl-N-(1-methyl-1H-indol-6-yl)benzamide] |  |  | > 10000 | 
CCN(C(=O)c1cc(C(C)C)c(O)cc1O)c1cnc2ccccc2c1 [Compound 28c, N-ethyl-2,4-dihydroxy-5-isopropyl-N-(quinolin-3-yl)benzamide] | 280 ± 50 |  |  | 
CC(C)c1cc(C(=O)N(C)c2cnc3ccccc3c2)c(O)cc1O [Compound 28b, 2,4-dihydroxy-5-isopropyl-N-methyl-N-(quinolin-3-yl)benzamide] | > 10000 | > 10 |  | 
CCN(C(=O)c1cc(C(C)C)c(O)cc1O)c1cccc2ccn(C)c12 [Compound 22c, N-ethyl-2,4-dihydroxy-5-isopropyl-N-(1-methyl-1H-indol-7-yl)benzamide] |  |  | > 10000 | 
CCN(C(=O)c1cc(C(C)C)c(O)cc1O)c1ccc2ccn(C)c2c1 [Compound 21d, N-ethyl-2,4-dihydroxy-5-isopropyl-N-(1-methyl-1H-indol-6-yl)benzamide] |  |  | 90 ± 10 | 
CC(C)c1cc(C(=O)Nc2ccc3cc[nH]c3c2)c(O)cc1O [Compound 21a, 2,4-dihydroxy-N-(1H-indol-6-yl)-5-isopropylbenzamide] |  |  | 300 ± 30 | 
CC(C)c1cc(C(=O)N(C)c2ccc3c(cnn3C)c2)c(O)cc1O [Compound 25b, 2,4-dihydroxy-5-isopropyl-N-methyl-N-(1-methyl-1H-indazol-5-yl)benzamide] | 110 ± 10 | 0.1 ± 0.01 |  | 
Cc1cc(NC(=O)c2cc(C(C)C)c(O)cc2O)c2ccccc2n1 [Compound 32a, 2,4-dihydroxy-5-isopropyl-N-(2-methylquinolin-4-yl)benzamide] | > 10000 | > 10 |  | 
CC(C)c1cc(C(=O)N(C)c2ccc3ncccc3c2)c(O)cc1O [Compound 30b, 2,4-dihydroxy-5-isopropyl-N-methyl-N-(quinolin-6-yl)benzamide] | > 10000 | > 10 |  | 
CC(C)c1cc(C(=O)N(c2cnc3c(ccn3C)c2)C(C)C)c(O)cc1O [Compound 24f, 2,4-dihydroxy-N, 5-diisopropyl-N-(1-methyl-1H-pyrrolo[2,3-b]pyridin-5-yl)benzamide] | 2060 ± 120 |  |  | GI50 (colorectal HCT116; [2]): 3.14 ± 0.87 µM
CC(C)c1cc(C(=O)Nc2cccc3cccnc23)c(O)cc1O [Compound 31a, 2,4-dihydroxy-5-isopropyl-N-(quinolin-8-yl)benzamide] | > 10000 | > 10 |  | 

Compound | GI50 (lung A549; [1]) [nM] | GI50 (prostate PC3) [µM] | GI50 (lung A549; [3]) [nM] | further results
CC(C)c1cc(C(=O)Nc2ccc3ncccc3c2)c(O)cc1O [Compound 30a, 2,4-dihydroxy-5-isopropyl-N-(quinolin-6-yl)benzamide] | > 10000 | > 10 |  | 
CCN(C(=O)c1cc(C(C)C)c(O)cc1O)c1cccc2cccnc12 [Compound 31c, N-ethyl-2,4-dihydroxy-5-isopropyl-N-(quinolin-8-yl)benzamide] | 3700 ± 170 | 2.4 ± 0.27 |  | 
CC(C)c1cc(C(=O)N(c2cccc3ccn(C)c23)C(C)C)c(O)cc1O [Compound 22e, 2,4-dihydroxy-N,5-diisopropyl-N-(1-methyl-1H-indol-7-yl)benzamide] |  |  | > 10000 | 
CCN(C(=O)c1cc(C(C)C)c(O)cc1O)c1cnc2c(ccn2C)c1 [Compound 24d, N-ethyl-2,4-dihydroxy-5-isopropyl-N-(1-methyl-1H-pyrrolo[2,3-b]pyridin-5-yl)benzamide] | 230 ± 30 |  |  | GI50 (colorectal HCT116; [2]): 0.44 ± 0.19 µM
CCN(C(=O)c1cc(C(C)C)c(O)cc1O)c1cccnc1OCc1ccccc1 [Compound 34b, N-(2-(benzyloxy)pyridin-3-yl)-N-ethyl-2,4-dihydroxy-5-isopropylbenzamide] | 210 ± 10 |  |  | 
CC(C)c1cc(C(=O)N(C)c2ccc3c(c2)CCN3)c(O)cc1O [Compound 23b, 2,4-dihydroxy-N-(indolin-5-yl)-5-isopropyl-N-methylbenzamide] | 2820 ± 30 |  |  | GI50 (colorectal HCT116; [2]): 5.53 ± 0.38 µM
CCCN(C(=O)c1cc(C(C)C)c(O)cc1O)c1cnc2c(ccn2C)c1 [Compound 24e, 2,4-dihydroxy-5-isopropyl-N-(1-methyl-1H-pyrrolo[2,3-b]pyridin-5-yl)-N-propylbenzamide] | 2100 ± 170 |  |  | GI50 (colorectal HCT116; [2]): 3.76 ± 0.23 µM
CC(C)c1cc(C(=O)Nc2ccc3[nH]ncc3c2)c(O)cc1O [Compound 25a, 2,4-dihydroxy-N-(1H-indazol-5-yl)-5-isopropylbenzamide] | > 10000 | > 10 |  | 
CCN(C(=O)c1cc(C(C)C)c(O)cc1O)c1ccc2ncccc2c1 [Compound 30c, N-ethyl-2,4-dihydroxy-5-isopropyl-N-(quinolin-6-yl)benzamide] | 510 ± 90 | 0.46 ± 0.13 |  | 
CC(C)c1cc(C(=O)Nc2cnc3c(cnn3C)c2)c(O)cc1O [Compound 26b, 2,4-dihydroxy-5-isopropyl-N-(1-methyl-1H-pyrazolo[3,4-b]pyridin-5-yl)benzamide] | > 10000 |  |  | GI50 (colorectal HCT116; [2]): > 10 µM
CC(C)c1cc(C(=O)N(c2cnc3c(cnn3C)c2)C(C)C)c(O)cc1O [Compound 26f, 2,4-dihydroxy-N, 5-diisopropyl-N-(1-methyl-1H-pyrazolo[3,4-b]pyridin-5-yl)benzamide] | 3640 ± 50 |  |  | GI50 (colorectal HCT116; [2]): 6.86 ± 0.48 µM
CC(C)c1cc(C(=O)N(C)c2ccc3ccn(C)c3c2)c(O)cc1O [Compound 21c, 2,4-dihydroxy-5-isopropyl-N-methyl-N-(1-methyl-1H-indol-6-yl)benzamide] |  |  | 100 ± 20 | 
CC(C)c1cc(C(=O)N(C)c2cnc3c(ccn3C)c2)c(O)cc1O [Compound 24c, 2,4-dihydroxy-5-isopropyl-N-methyl-N-(1-methyl-1H-pyrrolo[2,3-b]pyridin-5-yl)benzamide] | 270 ± 30 |  |  | GI50 (colorectal HCT116; [2]): 0.71 ± 0.08 µM
CC(C)c1cc(C(=O)N(c2ccc3ccn(C)c3c2)C(C)C)c(O)cc1O [Compound 21f, 2,4-dihydroxy-N,5-diisopropyl-N-(1-methyl-1H-indol-6-yl)benzamide] |  |  | 840 ± 40 | 
CCCN(C(=O)c1cc(C(C)C)c(O)cc1O)c1cnc2c(cnn2C)c1 [Compound 26e, 2,4-dihydroxy-5-isopropyl-N-(1-methyl-1H-pyrazolo[3,4-b]pyridin-5-yl)-N-propylbenzamide] | 4210 ± 220 |  |  | GI50 (colorectal HCT116; [2]): 8.29 ± 0.29 µM
CC(C)c1cc(C(=O)Nc2cccc3ncccc23)c(O)cc1O [Compound 29a, 2,4-dihydroxy-5-isopropyl-N-(quinolin-5-yl)benzamide] | > 10000 | > 10 |  | 
C=CCNC1=C2C[C@@H](C)C[C@H](OC)[C@H](O)[C@@H](C)/C=C(\C)[C@H](OC(N)=O)[C@@H](OC)/C=C\C=C(/C)C(=O)NC(=CC1=O)C2=O [Compound 17-AAG, 17-allylamino-17-desmethoxygeldanamycin, reference compound] |  |  |  | GI50 (lung A549; Homo sapiens, A549, Table 2, SRB, read-out: A549 GI50): 80 ± 10 nM; GI50 (colorectal HCT116; Table 2, read-out: HCT116 GI50): 0.34 ± 0.06 µM
CCN(C(=O)c1cc(C(C)C)c(O)cc1O)c1cccnc1C [Compound 34a, N-ethyl-2,4-dihydroxy-5-isopropyl-N-(2-methylpyridin-3-yl)benzamide] |  |  |  | GI50 (lung A549; Table 1, SRB, 48 h, read-out: GI50 Lung A549): > 10000 nM
